Assay results reported in patent US20180327402A1, “TRIAZOLOPYRIDINE COMPOUNDS AND METHODS OF USE THEREOF” (Genentech, Inc., priority 2015, published 2018).
Where a name gives a salt, the structure may show the parent alone.

Legend:
[1] = target: T1, isolated recombinant JAK1 kinase domain (Homo sapiens, UniProt P23458); test: JAK enzyme assay (Caliper LabChip), JAK1; assay type: biochemical; details: 1.5 nM JAK1, ATP 25 μM, 22° C., 30 minutes; Morrison tight binding model
T1 construct: isolated recombinant JAK1 and JAK2 kinase domain
T1 sequence (P23458 875-1153 limits assumed): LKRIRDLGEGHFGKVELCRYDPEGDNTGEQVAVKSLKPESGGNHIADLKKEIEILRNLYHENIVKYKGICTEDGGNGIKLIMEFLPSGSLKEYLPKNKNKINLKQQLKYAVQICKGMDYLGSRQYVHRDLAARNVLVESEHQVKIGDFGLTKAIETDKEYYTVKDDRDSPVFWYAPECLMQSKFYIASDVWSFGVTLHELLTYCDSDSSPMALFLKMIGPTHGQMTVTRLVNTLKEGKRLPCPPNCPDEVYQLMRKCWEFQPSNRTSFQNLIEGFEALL
Procedure: (§1) The activity of the isolated recombinant JAK1 and JAK2 kinase domain was measured by monitoring phosphorylation of a peptide derived from JAK3 (Val-Ala-Leu-Val-Asp-Gly-Tyr-Phe-Arg-Leu-Thr-Thr, fluorescently labeled on the N-terminus with 5-carboxyfluorescein) using the Caliper LabChip® technology (Caliper Life Sciences, Hopkinton, Mass.). To determine inhibition constants (Ki), compounds were diluted serially in DMSO and added to 50 μL kinase reactions containing purified enzyme (1.5 nM JAK1, or 0.2 nM JAK2), 100 mM HEPES buffer (pH 7.2), 0.015% Brij-35, 1.5 μM peptide substrate, ATP (25 μM), 10 mM MgCl2, 4 mM DTT at a final DMSO concentration of 2%. Reactions were incubated at 22° C. in 384-well polypropylene microtiter plates for 30 minutes and then stopped by addition of 25 μL of an EDTA containing solution (100 mM HEPES buffer (pH 7.2), 0.015% Brij-35, 150 mM EDTA), resulting in a final EDTA concentration of 50 mM. After termination of the kinase reaction, the proportion of phosphorylated product was determined as a fraction of total peptide substrate using the Caliper LabChip® 3000 according to the manufacturer's specifications. Ki values were then determined using the Morrison tight binding model (Morrison, J. F., Biochim. Biophys. Acta. 185:269-296 (1969); William, J. W. and Morrison, J. F., Meth. Enzymol., 63:437-467 (1979)) modified for ATP-competitive inhibition [Ki ═Ki,app/(1+[ATP]/Km,app)].

[2] = target: T2, isolated recombinant JAK2 kinase domain (Homo sapiens, UniProt O60674); test: JAK enzyme assay (Caliper LabChip), JAK2; assay type: biochemical; details: 0.2 nM JAK2, ATP 25 μM, 22° C., 30 minutes; Morrison tight binding model
T2 construct: isolated recombinant JAK1 and JAK2 kinase domain
T2 sequence (O60674 849-1124 limits assumed): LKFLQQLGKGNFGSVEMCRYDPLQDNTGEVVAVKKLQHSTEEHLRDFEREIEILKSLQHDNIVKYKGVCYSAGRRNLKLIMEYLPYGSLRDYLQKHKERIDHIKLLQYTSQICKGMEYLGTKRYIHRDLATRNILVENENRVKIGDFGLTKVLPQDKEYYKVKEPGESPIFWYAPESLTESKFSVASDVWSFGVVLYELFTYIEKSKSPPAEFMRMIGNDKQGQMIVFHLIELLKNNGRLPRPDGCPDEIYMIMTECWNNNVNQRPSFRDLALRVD
Procedure: as §1

Row | Ki [1] | Ki [2] | Structure (SMILES)
1 | 0.33 nM | 0.16 nM | OCC1(c2ccc(Cl)cc2)CCN(c2cccn3nc(Nc4cnn(CCCN5CCOCC5)c4)nc23)CC1 [Compound 1-10, [4-(4-chlorophenyl)-1-[2-[[1-(3-morpholinopropyl)pyrazol-4-yl]amino]-[1,2,4]triazolo[1,5-a]pyridin-8-yl]-4-piperidyl]methanol; formic acid]
2 | 1.8 nM | 2.9 nM | CN(C)CC(O)C1(c2ccc(Cl)cc2)CCN(c2cccn3nc(Nc4cnn(C)c4)nc23)CC1 (racemic) [C, 1-[4-(4-chlorophenyl)-1-[2-[(1-methylpyrazol-4-yl)amino]-[1,2,4]triazolo[1,5-a]pyridin-8-yl]-4-piperidyl]-2-(dimethylamino)ethanol]
3 | 5.1 nM | 1.2 nM | CSc1ccc(C2(CC#N)CCN(c3cccn4nc(Nc5cnn(CCN(C)C)c5)nc34)CC2)cc1 [N, 2-[1-[2-[[1-[2-(dimethylamino)ethyl]pyrazol-4-yl]amino]-[1,2,4]triazolo[1,5-a]pyridin-8-yl]-4-(4-methylsulfanylphenyl)-4-piperidyl]acetonitrile]
4 | 190 nM | 86 nM | CN(C)C(=O)CN1CCC2(CC1)CN(C(=O)N1CC=C(c3cccn4nc(Nc5cnn(C)c5)nc34)CC1)C2 [I, N,N-dimethyl-2-[2-[4-[2-[(1-methylpyrazol-4-yl)amino]-[1,2,4]triazolo[1,5-a]pyridin-8-yl]-3,6-dihydro-2H-pyridine-1-carbonyl]-2,7-diazaspiro[3.5]nonan-7-yl]acetamide]
5 | 4.6 nM | 1 nM | CSc1ccc(C2(CC#N)CCN(c3cccn4nc(Nc5cnn(CCN6CCN(C)C(=O)C6)c5)nc34)CC2)cc1 [O, 2-[1-[2-[[1-[2-(4-methyl-3-oxo-piperazin-1-yl)ethyl]pyrazol-4-yl]amino]-[1,2,4]triazolo[1,5-a]pyridin-8-yl]-4-(4-methylsulfanylphenyl)-4-piperidyl]acetonitrile]
6 | 2.6 nM | 0.65 nM | CSc1ccc(C2(CC#N)CCN(c3cccn4nc(Nc5cnn(CCN6CCN(C(C)=O)CC6)c5)nc34)CC2)cc1 [L, 2-[1-[2-[[1-[2-(4-acetylpiperazin-1-yl)ethyl]pyrazol-4-yl]amino]-[1,2,4]triazolo[1,5-a]pyridin-8-yl]-4-(4-methylsulfanylphenyl)-4-piperidyl]acetonitrile]
7 | 2.4 nM | 0.86 nM | CNCCn1cc(Nc2nc3c(-c4ccc(OCc5ccc(OCCOC)nc5)cc4)cccn3n2)cn1 [Compound 3-2, 8-[4-[[6-(2-methoxyethoxy)-3-pyridyl]methoxy]phenyl]-N-[1-[2-(methylamino)ethyl]pyrazol-4-yl]-[1,2,4]triazolo[1,5-a]pyridin-2-amine]
8 | 0.42 nM | 0.31 nM | CCCCn1cc(Nc2nc3c(N4CCC(CO)(c5ccc(Cl)cc5)CC4)cccn3n2)cn1 [Compound 1-11, [1-[2-[(1-butylpyrazol-4-yl)amino]-[1,2,4]triazolo[1,5-a]pyridin-8-yl]-4-(4-chlorophenyl)-4-piperidyl]methanol]
9 | 0.97 nM | 0.58 nM | Cn1cc(Nc2nc3c(N4CCC(c5ccc(Cl)cc5)(C(O)CN5CCOCC5)CC4)cccn3n2)cn1 (racemic) [B, 1-[4-(4-chlorophenyl)-1-[2-[(1-methylpyrazol-4-yl)amino]-[1,2,4]triazolo[1,5-a]pyridin-8-yl]-4-piperidyl]-2-morpholino-ethanol]
10 | 1.4 nM | 0.53 nM | COC(=O)CNCC1(c2ccc(Cl)cc2)CCN(c2cccn3nc(Nc4cnn(C)c4)nc23)CC1 [F, formic acid; methyl 2-[[4-(4-chlorophenyl)-1-[2-[(1-methylpyrazol-4-yl)amino]-[1,2,4]triazolo[1,5-a]pyridin-8-yl]-4-piperidyl]methylamino]]
11 | 0.16 nM | 0.13 nM | OCC1(c2ccc(Cl)cc2)CCN(c2cccn3nc(Nc4cnn(CC(F)F)c4)nc23)CC1 [Compound 1-14, [4-(4-chlorophenyl)-1-[2-[[1-(2,2-difluoroethyl)pyrazol-4-yl]amino]-[1,2,4]triazolo[1,5-a]pyridin-8-yl]-4-piperidyl]methanol]
12 | 0.63 nM | 0.32 nM | COCCOc1ccc(COc2ccc(-c3cccn4nc(Nc5cnn(C)c5)nc34)cc2)cn1 [Compound 3-1, 8-[4-[[6-(2-methoxyethoxy)-3-pyridyl]methoxy]phenyl]-N-(1-methylpyrazol-4-yl)-[1,2,4]triazolo[1,5-a]pyridin-2-amine]
13 | 0.75 nM | 0.44 nM | CC(C)CCn1cc(Nc2nc3c(N4CCC(CO)(c5ccc(Cl)cc5)CC4)cccn3n2)cn1 [Compound 1-13, [4-(4-chlorophenyl)-1-[2-[(1-isopentylpyrazol-4-yl)amino]-[1,2,4]triazolo[1,5-a]pyridin-8-yl]-4-piperidyl]methanol; formic acid]
14 | 0.74 nM | 0.88 nM | O=C(CCC(F)(F)F)N1CC=C(c2cccn3nc(Nc4cnn(CC(F)F)c4)nc23)CC1 [Compound 2-1, 1-[4-[2-[[1-(2,2-difluoroethyl)pyrazol-4-yl]amino]-[1,2,4]triazolo[1,5-a]pyridin-8-yl]-3,6-dihydro-2H-pyridin-1-yl]-4,4,4-trifluoro-butan-1-one]
15 | 0.56 nM | 0.22 nM | CN(C)CCCn1cc(Nc2nc3c(N4CCC(CO)(c5ccc(Cl)cc5)CC4)cccn3n2)cn1 [Compound 1-8, [4-(4-chlorophneyl)-1-[2-[[1-[3-(dimethylamino)propyl]pyrazol-4-yl]amino]-[1,2,4]triazolo[1,5-a]pyridin-8-yl]-4-piperidyl]methanol; formic acid]
16 | 0.18 nM | 0.11 nM | OCCCn1cc(Nc2nc3c(N4CCC(CO)(c5ccc(Cl)cc5)CC4)cccn3n2)cn1 [Compound 1-7, 3-[4-[[8-[4-(4-chlorophenyl)-4-(hydroxymethyl)-1-piperidyl]-[1,2,4]triazolo[1,5-a]pyridin-2-yl]amino]pyrazol-1-yl]propan-1-ol]
17 | 11 nM | 3.5 nM | Cn1cc(Nc2nc3c(N4CCC(CCN5CCOCC5)(c5ccc(Cl)cc5)CC4)cccn3n2)cn1 [H, 8-[4-(4-chlorophenyl)-4-(2-morpholinoethyl)-1-piperidyl]-N-(1-methylpyrazol-4-yl)-[1,2,4]triazolo[1,5-a]pyridin-2-amine]
18 | 0.74 nM | 0.28 nM | CNCCCn1cc(Nc2nc3c(-c4ccc(OCc5ccc(OCCOC)nc5)cc4)cccn3n2)cn1 [Compound 3-5, 8-[4-[[6-(2-methoxyethoxy)-3-pyridyl]methoxy]phenyl]-N-[1-[3-(methylamino)propyl]pyrazol-4-yl]-[1,2,4]triazolo[1,5-a]pyridin-2-amine]
19 | 0.21 nM | 0.045 nM | OCC1(c2ccc(Cl)cc2)CCN(c2cccn3nc(Nc4cnn(CC5CCNCC5)c4)nc23)CC1 [Compound 1-1, [4-(4-chloropenyl)-1-[2-[[1-(4-piperidylmethyl)pyrazol-4-yl]amino]-[1,2,4]triazolo[1,5-a]pyridin-8-yl]-4-piperidyl]methanol; hydrochloride]
20 | 2.7 nM | 1.1 nM | CSc1ccc(C2(CC#N)CCN(c3cccn4nc(Nc5cnn(CCN6CCC(N7CCOCC7)CC6)c5)nc34)CC2)cc1 [K, 2-[4-(4-methylsulfanylphenyl)-1-[2-[[1-[2-(4-morpholino-1-piperidyl)ethyl]pyrazol-4-yl]amino]-[1,2,4]triazolo[1,5-a]pyridin-8-yl]-4-piperidyl]acetonitrile]
21 | 0.63 nM | 0.38 nM | OCC1(c2ccc(Cl)cc2)CCN(c2cccn3nc(Nc4cnn(C5CCN(Cc6ccccc6)CC5)c4)nc23)CC1 [Compound 1-3, [1-[2-[[1-(1-benzyl-4-piperidyl)pyrazol-4-yl]amino]-[1,2,4]triazolo[1,5-a]pyridin-8-yl]-4-(4-chlorophenyl)-4-piperidyl]methanol; formic acid]
22 | 38 nM | 20 nM | COC(=O)CN1CCC2(CC1)CN(C(=O)N1CC=C(c3cccn4nc(Nc5cnn(C)c5)nc34)CC1)C2 [E, methyl 2-[2-[4-[2-[(1-methylpyrazol-4-yl)amino]-[1,2,4]triazolo[1,5-a]pyridin-8-yl]-3,6-dihydro-2H-pyridine-1-carbonyl]-2,7-diazaspiro[3.5]nonan-7-yl]acetate]
23 | 1.9 nM | 0.48 nM | COCCOc1ccc(COc2ccc(-c3cccn4nc(Nc5cnn(C[C@H]6CCCN6)c5)nc34)cc2)cn1 [Compound 3-4, 8-[4-[[6-(2-methoxyethoxy)-3-pyridyl]methoxy]phenyl]-N-[1-[[(2R)-pyrrolidin-2-yl]methyl]pyrazol-4-yl]-[1,2,4]triazolo[1,5-a]pyridin-2-amine]
24 | 0.55 nM | 0.26 nM | CN1CCN(CCCn2cc(Nc3nc4c(N5CCC(CO)(c6ccc(Cl)cc6)CC5)cccn4n3)cn2)CC1 [Compound 1-9, [4-(4-chlorophenyl)-1-[2-[[1-[3-(4-methylpiperazin-1-yl)propyl]pyrazol-4-yl]amino]-[1,2,4]triazolo[1,5-a]pyridin-8-yl]-4-piperidyl]methanol; formic acid]
